Two molecules from patent US20220249441A1, “Homodimeric Tobramycin Adjuvant Repurposes Novobiocin as an Effective Antibacterial Agent Against Gram-Negative Bacteria” (priority 2019, published 2022) can be followed below.

In assay [1] the test system is A. baumannii ATCC 17978 and resistant mutants. Put plainly: microbe, parasite or virus in culture. The following applies: Acinetobacter baumannii. It counts as cell-based, Acinetobacter baumannii. How it is done: Antimicrobial Susceptibility Assay. The in vitro antimicrobial activity of all compounds/antibiotics against a panel of bacteria was evaluated by microbroth dilution method in accordance with the Clinical and Laboratory Standards Institute (CLSI) guidelines (using ATCC strains as quality control strains) (54). Overnight grown bacterial cultures were diluted in saline to achieve a 0.5 McFarland turbidity, followed by 1:50 dilution in Mueller-Hinton broth (MHB) for inoculation to a final concentration of approximately 5×10^5 CFU/mL. […] The lowest concentration that prevented the visible growth of bacteria was defined as the MIC for each antimicrobial agent. The broth with or without bacterial cells was used as positive or negative control, respectively.
Development of Resistance Study. […] Tobramycin and colistin were included as controls. At 24-hour intervals, the cultures were assessed for growth. […] This serial passaging was repeated for 8 days.

For assay [2], the system named is P. aeruginosa PAO1. In words: Time-kill assay. It counts as cell-based, Pseudomonas aeruginosa. The conditions noted are these: LB media, novobiocin 32 μg/ml, compound 1 7.1 μM, 24 h. On the procedure:
(§1) Time-kill Assay. […] At specific time intervals (0, 1, 3, 6, 9, and 24 h), 100 μl was taken from each sample, serially diluted in sterile PBS, plated on LB agar plates, and incubated at 37° C. in a humid 5% CO2-enriched atmosphere. Bacterial colonies were counted after 20 h of incubation.

Another assay has as its system K. pneumoniae 116381. Put plainly: Time-kill assay. The assay is classed as cell-based, Klebsiella pneumoniae. The following applies: LB media, novobiocin 32 μg/ml, compound 1 7.1 μM, 24 h. How it is done: as §1
The subject of the next assay is E. coli ATCC 25922. In words: Time-kill assay. The assay is classed as cell-based, Escherichia coli. The conditions noted are these: novobiocin 32 μg/ml, compound 1 7.1 μM. How it is done: as §1
Assay [3] deals with P. aeruginosa PAO1 and efflux deficient mutants, MDR/XDR isolates. Put plainly: microbe, parasite or virus in culture. It counts as cell-based, Pseudomonas aeruginosa. On the procedure:
Antimicrobial Susceptibility Assay. The in vitro antimicrobial activity of all compounds/antibiotics against a panel of bacteria was evaluated by microbroth dilution method in accordance with the Clinical and Laboratory Standards Institute (CLSI) guidelines (using ATCC strains as quality control strains) (54). […] The broth with or without bacterial cells was used as positive or negative control, respectively.

In assay [4] the test system is P. aeruginosa PAO1. Put plainly: Outer membrane permeabilization assay (NPN uptake). The assay is classed as cell-based, Pseudomonas aeruginosa. How it is done:
Outer Membrane Permeabilization Assay. […] Briefly, an overnight grown P. aeruginosa PAO1 culture was subcultured (1 in 100) in fresh LB broth and grown to a mid-logarithmic phase (approximately 2 h, OD600=0.5-0.6). The cells were harvested by centrifuging for 10 min at 1000 g and room temperature, washed twice in PBS, and resuspended in half volume of PBS. This suspension was used in standard microtiter plate assay. […] PMBN, a known outer membrane permeabilizer, served as a positive control while cells +NPN (without test compounds) served as a negative control. Four independent replicates were conducted, and the data were corrected for any background fluorescence.

Values after ≈ are worked out from the molar mass of the structure shown.

For `CO[C@@H]1[C@@H](OC(N)=O)[C@@H](O)[C@H](Oc2ccc3c(O)c(NC(=O)c4ccc(O)c(CC=C(C)C)c4)c(=O)oc3c2C)OC1(C)C` [Novobiocin], the MIC in assay [1] (ATCC17978, 18 h, Mutant C (seven serial passages, sub-MICs novobiocin + 7.1 μM compound 1)) is 128 µg/mL; in assay [1] (ATCC17978, Mutant A (seven serial passages, sub-MICs novobiocin)), 2050 µg/mL (≈ 3.34 mM); in assay [1] (ATCC17978, Mutant B (seven serial passages, sub-MICs colistin)), less than 0.031 µg/mL. The time-kill outcome in the assay on P. aeruginosa PAO1 [2] and in the assay with K. pneumoniae 116381 was “bacterial growth identical to their respective controls” each time. The “incubation time after which bactericidal” value in the assay on E. coli ATCC 25922 was 24 h.

In the case of `NC[C@H]1O[C@H](O[C@H]2[C@H](OCCCCc3cn(CCCCO[C@@H]4[C@@H](O[C@H]5O[C@H](CO)[C@@H](O)[C@H](N)[C@H]5O)[C@H](N)C[C@H](N)[C@H]4O[C@H]4O[C@H](CN)[C@@H](O)C[C@H]4N)nn3)[C@@H](O[C@H]3O[C@H](CO)[C@@H](O)[C@H](N)[C@H]3O)[C@H](N)C[C@@H]2N)[C@H](N)C[C@@H]1O.O=C(O)C(F)(F)F.O=C(O)C(F)(F)F.O=C(O)C(F)(F)F.O=C(O)C(F)(F)F.O=C(O)C(F)(F)F.O=C(O)C(F)(F)F.O=C(O)C(F)(F)F.O=C(O)C(F)(F)F.O=C(O)C(F)(F)F.O=C(O)C(F)(F)F` [Compound 1, Tobramycin Homodimer 1], the “MIC of Compound 1” value in assay [3] (PAO1 (wild-type)), in assay [3] (PAO200 (efflux-deficient)) and in assay [3] (PAO750 (efflux-deficient)) was more than 128 µg/mL each time. Moreover, the “outer membrane permeabilization (NPN fluorescence)” value in the assay with P. aeruginosa PAO1 [4] is listed as “dose-dependent”. The “NPN fluorescence relative to PMBN (8 μg/ml)” value in the assay with P. aeruginosa PAO1 [4] (compound 1 at 16 μg/ml) was “increased fluorescence”.
